Results published in US20210161840A1, “COMPOSITIONS AND METHODS FOR TREATMENT OF IRON OVERLOAD” (priority 2018, published 2021).

What was measured:
[1] = system: doxorubicin-induced cardiomyopathy; assay: Doxorubicin-induced cardiomyopathy in mice; type: in vivo, C57BL/6 mice
Procedure: The purpose of this study was to assess the protective effect of dexrazoxan or the zinc-dexrazoxan complex, administered with or without Ga-DFO, against doxorubicin-induced cardiomyopathy.
C57BL/6 mice are injected once with doxorubicin, 20 mg/kg, i.p., and then divided into the following 5 groups: Group 1: untreated; Group 2: treated with dexrazoxan single dose of 400 mg/kg i.v.; Group 3: treated with the zinc complex of dexrazoxan single dose of 100 mg/kg i.v.; Group 4: treated with the Ga-DFO complex 6 mg/kg, and Group 5: treated with the zinc complex of dexrazoxan single dose of 50 mg/kg i.v. together with Ga-DFO 4 mg/kg. The animals are monitored for 21 days, measuring their survival (Kaplan-Meier curves). On Day 21 the animals are sacrificed, and their hearts are assessed histologically for cardiac remodeling and hypertrophy (collagen % or area).

[2] = Keberle, 1964; cited from earlier work
[3] = Keberle, 1964; cited from earlier work; remark: listed apart in the source
[4] = Keberle, 1964; cited from earlier work; remark: listed apart in the source
[5] = Keberle, 1964; cited from earlier work; remark: listed apart in the source

Row | SMILES | survival ([1]; Day 15 after doxorubicin 20 mg/kg i.p., about 90% of untreated mice die) | collagen % of the area (cardiac histology) ([1]; Day 21 after doxorubicin 20 mg/kg i.p., untreated about 10-12%) | relative stability constant of DFO complex with Cu(II) [2] | relative stability constant of DFO complex with Fe(III) [3] | relative stability constant of DFO complex with Ga(III) [4] | relative stability constant of DFO complex with Zn(II) [5]
1 | C[C@@H](CN1CC(=O)NC(=O)C1)N1CC(=O)NC(=O)C1 [dexrazoxan] | about 50% | about 9% | – | – | – | –
2 | CC(=O)N(O)CCCCCNC(=O)CCC(=O)N(O)CCCCCNC(=O)CCC(=O)N(O)CCCCCN [DFO, N′-[5-(acetyl-hydroxy-amino)pentyl]-N-[5-[3-(5-aminopentyl-hydroxy-carbamoyl)propanoylamino]pentyl]-N-hydroxy-butane diamide] | – | – | 10^14 | 10^31 | 10^28 | 10^11
